Earlier results on three substances are cited in patent publication US8598236B2, “Emulsion system derived from engkabang fat esters” (Universiti Putra Malaysia, priority 2009, dated 2013).

The conditions of the series: purchased nonionic surfactants.
As to Sorbitan mono-oleate [Span80], the HLB value is 4.3. “polyoxyethylene (20) sorbitan tri-oleate [Tween85]”: the HLB value is recorded as 11.0. In the case of sorbitan monolaurate [Span20], the HLB value is 8.6.
